Usually pKd stands for −log10 of the Kd, conventionally taken in molar units. Low readings indicate a large Kd, high ones a small Kd. As a reminder, the kon is the rate constant with which the complex forms.

The structures appear in SMILES notation. pKd: −log10 of the molar value.

One data set has as its system AML CD34+ cells. The data set is described as follows: Release study of DMAPE in vitro, AML CD34+ cells (UFLC-MS/MS). The note with it: 10 μM DMAPE, 24 h. The format is in vitro ADME, human. How it is done: 1 × 10^5 cells (including sorted CD34^+ KG-1a cells and NBM cells) were seeded at 48-well plates (Corning, New York, USA) in the IMDM-based serum-free media for 1 h. The cells were then incubated with 10 μM DMAPE at 37 °C in the 5% CO2 incubator for 0, 12 or 24 h. The culture supernatant was collected by centrifugation at 3000 rpm for 10 min and evaporated to dryness at 30 °C using a CentriVap vacuum centrifugal concentrator. The resulting residue was reconstituted in 100 μL methanol, vortexed and centrifuged at 12000 rpm for 10 min. A 2 μL aliquot of the supernatant was injected for UFLC-MS/MS analysis (UFLC-MS/MS analysis method same as the pharmacokinetic study of DMAPE, see Additional method in Supplementary Materials).

Details of data set [1]: method as in earlier work. Conditions: within 24 h; cited from earlier work.
The target in another data set is T1, TrxR1 nSec498 (Homo sapiens, UniProt Q16881).
T1 construct: protein fragment, without selenocysteine residue; purchased Abcam ab168011
T1 sequence (Q16881 11-497 isoform Q16881-5): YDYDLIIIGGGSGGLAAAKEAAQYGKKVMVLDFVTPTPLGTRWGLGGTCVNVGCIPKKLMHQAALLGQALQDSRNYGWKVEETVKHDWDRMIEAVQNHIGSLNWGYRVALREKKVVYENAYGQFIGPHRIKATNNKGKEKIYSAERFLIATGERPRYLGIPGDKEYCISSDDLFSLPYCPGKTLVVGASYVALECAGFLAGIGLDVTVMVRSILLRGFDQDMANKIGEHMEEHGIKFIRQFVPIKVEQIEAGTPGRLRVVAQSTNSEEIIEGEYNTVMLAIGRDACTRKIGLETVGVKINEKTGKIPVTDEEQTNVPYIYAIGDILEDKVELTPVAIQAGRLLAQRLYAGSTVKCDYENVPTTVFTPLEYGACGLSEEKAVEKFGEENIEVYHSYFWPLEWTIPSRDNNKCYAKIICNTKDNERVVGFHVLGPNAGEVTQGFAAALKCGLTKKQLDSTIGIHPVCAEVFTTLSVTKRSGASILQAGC
The data set is described as follows: BLI binding assay, TrxR1 without Sec498. Conditions: NADPH reduced TrxR1 nSec498 0.9 μM. As to the method:
The binding kinetics of PepE or PepA to purified recombinant proteins were determined using BLI on an Octet RED 96 system (ForteBio, Shanghai, China) following the manufacturer's protocol. All interaction analyses were performed at 25 °C in PBS with 0.2% DMSO. Purified recombinant proteins (0.9 μM, the TrxR1 full length and TrxR1 protein fragment were pre-reduced by 400 μM of NADPH before test) were pre-labeled with biotin using […] (Abcam) following the manufacturer's instruction. Loading of the Dip and Read Super Streptavidin (SSA) Biosensors (ForteBio) were conducted by exposing biotinylated proteins to biosensor tips for 2 h. The 96-well microplates used in the Octet were filled with 200 μL sample or buffer per well and agitated at 1000 rpm. The loaded biosensors were washed in buffer for 600 s and transferred to wells containing PepE at concentrations of 0.625, 1.25, 2.5, 5, and 10 μM or PepA at concentrations of 1.25, 2.5, 5, 10 and 20 μM, respectively, in the buffer. […] Reference measurements were conducted using the buffer instead of PepE (or PepA). A parallel set of SA unloaded biosensors was prepared to act as a control. […] Kinetic parameters (Kon and Kdis) and affinity (KD) were determined from a global fit to a 1:1 binding model of the data between proteins and PepE using Octet software (ForteBio).
For orientation: BLI is a label-free optical method that tracks binding on a fibre tip over time.

In another data set the target is T2, GCLC (Homo sapiens, UniProt P48506).
T2 construct: purchased Abcam
T2 sequence (P48506 1-637): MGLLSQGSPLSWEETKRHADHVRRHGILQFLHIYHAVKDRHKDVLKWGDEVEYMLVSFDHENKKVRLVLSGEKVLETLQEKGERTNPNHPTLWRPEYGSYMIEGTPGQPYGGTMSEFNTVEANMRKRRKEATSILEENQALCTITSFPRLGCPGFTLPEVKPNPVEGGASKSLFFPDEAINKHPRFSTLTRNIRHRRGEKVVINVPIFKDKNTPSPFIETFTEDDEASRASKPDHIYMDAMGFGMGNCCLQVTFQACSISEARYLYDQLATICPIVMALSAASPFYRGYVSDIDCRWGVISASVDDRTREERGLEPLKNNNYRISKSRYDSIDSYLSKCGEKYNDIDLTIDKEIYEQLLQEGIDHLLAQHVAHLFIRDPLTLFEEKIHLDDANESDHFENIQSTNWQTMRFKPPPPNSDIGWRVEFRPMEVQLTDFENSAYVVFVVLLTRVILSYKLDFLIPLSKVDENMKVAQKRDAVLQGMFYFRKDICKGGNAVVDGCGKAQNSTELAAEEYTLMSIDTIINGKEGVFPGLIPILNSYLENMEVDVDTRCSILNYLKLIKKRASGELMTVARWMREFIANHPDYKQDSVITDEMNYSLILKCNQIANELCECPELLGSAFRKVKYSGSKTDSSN
Briefly: BLI binding assay, GCLC. As to the method: The binding kinetics of PepE or PepA to purified recombinant proteins were determined using BLI on an Octet RED 96 system (ForteBio, Shanghai, China) following the manufacturer's protocol. All interaction analyses were performed at 25 °C in PBS with 0.2% DMSO. Purified recombinant proteins (0.9 μM, the TrxR1 full length and TrxR1 protein fragment were pre-reduced by 400 μM of NADPH before test) were pre-labeled with biotin using […] (Abcam) following the manufacturer's instruction. Loading of the Dip and Read Super Streptavidin (SSA) Biosensors (ForteBio) were conducted by exposing biotinylated proteins to biosensor tips for 2 h. The 96-well microplates used in the Octet were filled with 200 μL sample or buffer per well and agitated at 1000 rpm. The loaded biosensors were washed in buffer for 600 s and transferred to wells containing PepE at concentrations of 0.625, 1.25, 2.5, 5, and 10 μM or PepA at concentrations of 1.25, 2.5, 5, 10 and 20 μM, respectively, in the buffer. […] Reference measurements were conducted using the buffer instead of PepE (or PepA). A parallel set of SA unloaded biosensors was prepared to act as a control. The sample-sensorgrams were corrected by subtracting the double reference curve. Kinetic parameters (Kon and Kdis) and affinity (KD) were determined from a global fit to a 1:1 binding model of the data between proteins and PepE using Octet software (ForteBio).

On to `COc1cc(C(c2cc(OC)c3c(c2)OCO3)[C@@H]2COC(=O)[C@H]2CN(C)CCO)cc2c1OCO2` [DMAPE, (2S,3S)-6-Methyl (hydroxyethyl) amino-2,6-dihydropeperomin E], for which the “DMAPE in culture with AML CD34+ cells” value in the data set on AML CD34+ cells was “could not be detected”. The “stability in the cell cultural media (without cells)” value in data set [1] is “stable”.
`C=C1C(=O)OC[C@H]1C(c1cc(OC)c2c(c1)OCO2)c1cc(OC)c2c(c1)OCO2` [PepE, Peperomin E] gave a pKd on TrxR1 nSec498 of 4.92. At GCLC, this compound gave a pKd of 2.87 and a kon of 465 M⁻¹ s⁻¹. The koff at GCLC (read-out: Kdis) was determined as 0.625 s⁻¹.
